Laboratory results published in US7585859B2, “PDE4B inhibitors and uses therefor” (Plexxikon, Inc., priority 2004, dated 2009).

What was measured:
[1] = biological target: T1, PDE4B: The catalytic domain of human PDE4B from S152-S528 (Homo sapiens, UniProt Q07343); assay: PDE4 IC50 determination by Scintillation Proximity Assay, PDE4B; assay type: biochemical; details: Table 1B, Formula I compounds; read-out: IC50 PDE4B
T1 construct: His6 (N); thrombin cleavage site (N); made in house; host or cells: E. coli
Procedure: (§1) IC50s were determined by Scintillation Proximity Assay (SPA). The principle of the assay is based on the fact that cAMP, the PDE4 substrate, binds weakly to Yittrium Silicate SPA beads, whereas AMP, the product of PDE4 hydrolysis binds strongly. Thus, the extent of PDE4 hydrolysis of a sample of [^3H]cAMP can be measured because only the
(§2) [^3H]AMP produced by PDE4 hydrolysis will bind to the SPA beads and produce a scintillation signal.
(§3) PDE4 enzymes used for IC50 assays were:
(§4) Enzyme was stored in 50% glycerol at −20°.
(§5) In addition to the compound dilutions, each assay plate contained control wells with 1 μl of DMSO (to define 0% enzyme inhibition) or 1 μl of 200 μM roflumilast (to define 100% enzyme inhibition). […] Next, 10 μl of PDE4 enzyme in assay buffer was added and the plates were shaken for 30 s. at 1000 rpm to start the cAMP hydrolysis reaction. The concentrations of enzyme used were: PDE4B, 80 ng/ml; PDE4D, 4 ng/ml; PDE4B2, 2.5 μl of 50% glycerol stock/ml; PDE4D5 0.083 μl of 50% glycerol stock/ml. Assay plates were covered and incubated for 30 min. at 30°. […] The assay plates were covered with clear plastic film, centrifuged for 1 min. at 1000 RPM to settle the SPA beads, and counted using a Wallac TriLux scintillation counter. IC50's were calculated from the raw assay data by non-linear regression curve fitting using the Assay Explorer software package from MDL.

PDE4D = biological target: T2, PDE4D (Homo sapiens, UniProt Q08499); assay: PDE4 IC50 determination by Scintillation Proximity Assay, PDE4D; assay type: biochemical; details: Table 1B, Formula I compounds; read-out: IC50 PDE4D
T2 construct: PDE4D: The catalytic domain of human PDE4B from S3 16-V692; His6 (N); thrombin cleavage site (N); made in house; host or cells: E. coli
Procedure: as §1, §2, §3, §4, §5

T2 sequence (Q08499 380-756): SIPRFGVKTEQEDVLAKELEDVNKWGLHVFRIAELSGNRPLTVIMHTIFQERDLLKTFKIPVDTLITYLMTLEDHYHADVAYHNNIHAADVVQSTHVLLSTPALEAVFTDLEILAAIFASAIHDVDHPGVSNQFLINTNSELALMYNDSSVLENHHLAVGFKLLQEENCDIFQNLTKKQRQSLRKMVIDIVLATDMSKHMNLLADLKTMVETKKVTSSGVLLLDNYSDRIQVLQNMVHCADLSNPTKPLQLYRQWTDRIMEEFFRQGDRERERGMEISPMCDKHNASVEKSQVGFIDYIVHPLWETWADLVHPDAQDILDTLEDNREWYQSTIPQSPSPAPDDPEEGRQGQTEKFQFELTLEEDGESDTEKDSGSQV
T1 sequence (Q07343 with tags, fused parts or gaps): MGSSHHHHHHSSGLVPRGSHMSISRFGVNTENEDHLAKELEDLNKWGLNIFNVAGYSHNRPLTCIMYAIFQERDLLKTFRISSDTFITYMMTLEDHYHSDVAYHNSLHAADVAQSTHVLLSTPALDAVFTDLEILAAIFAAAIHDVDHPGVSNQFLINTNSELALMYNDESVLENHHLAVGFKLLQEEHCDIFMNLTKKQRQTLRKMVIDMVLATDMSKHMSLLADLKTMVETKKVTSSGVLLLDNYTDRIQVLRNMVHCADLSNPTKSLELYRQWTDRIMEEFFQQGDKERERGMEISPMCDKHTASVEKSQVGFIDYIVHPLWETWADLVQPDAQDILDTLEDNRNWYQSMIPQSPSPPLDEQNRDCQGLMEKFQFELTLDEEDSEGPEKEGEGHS

SMILES: N#Cc1c(Nc2ccc(Oc3ccccc3)cc2)sc(C(=O)c2ccc(-c3ccccn3)s2)c1N [Compound 1-76, 4-Amino-2-(4-phenoxy-phenylamino)-5-(5-pyridin-2-yl-thiophene-2-carbonyl)-thiophene-3-carbonitrile]
- IC50 [1]: < 10 µM
- IC50 (PDE4D): > 10 µM

SMILES: N#Cc1c(NC2CCOC2=O)sc(C(=O)c2ccc(-c3ccccn3)s2)c1N (stereo not drawn) [Compound 1-79, 4-Amino-2-(2-oxo-tetrahydro-furan-3-ylamino)-5-(5-pyridin-2-yl-thiophene-2-carbonyl)-thiophene-3-carbonitrile]
- IC50 [1]: < 10 µM
- IC50 (PDE4D): < 10 µM

SMILES: N#Cc1c(NCC2CCCO2)sc(C(=O)c2ccc(-c3ccccn3)s2)c1N (stereo not drawn) [Compound 1-80, 4-Amino-5-(5-pyridin-2-yl-thiophene-2-carbonyl)-2-[(tetrahydro-furan-2-ylmethyl)-amino]-thiophene-3-carbonitrile]
- IC50 [1]: < 10 µM
- IC50 (PDE4D): < 10 µM

SMILES: COC(=O)C(CC(C)C)Nc1sc(C(=O)c2cc(-c3ccc(Cl)c(Cl)c3)no2)c(N)c1C#N (stereo not drawn) [Compound 1-84, 2-{4-Amino-3-cyano-5-[3-(3,4-dichloro-phenyl)-isoxazole-5-carbonyl]-thiophen-2-ylamino}-4-methyl-pentanoic acid methyl ester]
- IC50 [1]: > 10 µM
- IC50 (PDE4D): > 10 µM

SMILES: COC(=O)C(CC(C)C)Nc1sc(C(=O)c2ccc(C)cc2C)c(N)c1C#N (stereo not drawn) [Compound 1-87, 2-[4-Amino-3-cyano-5-(2,4-dimethyl-benzoyl)-thiophen-2-ylamino]-4-methyl-pentanoic acid methyl ester]
- IC50 [1]: > 10 µM
- IC50 (PDE4D): > 10 µM

SMILES: COC(=O)C(CCSC)Nc1sc(C(=O)c2ccc(C)cc2C)c(N)c1C#N (stereo not drawn) [Compound 1-88, 2-[4-Amino-3-cyano-5-(2,4-dimethyl-benzoyl)-thiophen-2-ylamino]-4-methylsulfanyl-butyric acid methyl ester]
- IC50 [1]: < 10 µM
- IC50 (PDE4D): > 10 µM

SMILES: Cc1ccc(C(=O)c2sc(Nc3ccc(C(=O)NC4CCOC4=O)cc3)c(C#N)c2N)c(C)c1 (stereo not drawn) [Compound 1-89, 4-[4-Amino-3-cyano-5-(2,4-dimethyl-benzoyl)-thiophen-2-ylamino]-N-(2-oxo-tetrahydro-furan-3-yl)-benzamide]
- IC50 [1]: < 10 µM
- IC50 (PDE4D): < 10 µM

SMILES: Cc1ccc(C(=O)c2sc(NC3CCOC3=O)c(C#N)c2N)c(C)c1 (stereo not drawn) [Compound 1-91, 4-Amino-5-(2,4-dimethyl-benzoyl)-2-(2-oxo-tetrahydro-furan-3-ylamino)-thiophene-3-carbonitrile]
- IC50 [1]: < 10 µM
- IC50 (PDE4D): > 10 µM

SMILES: COc1ccc(OC)c(C(=O)c2sc(Nc3ccccc3F)c(C#N)c2N)c1 [Compound 1-92, 4-Amino-5-(2,5-dimethoxy-benzoyl)-2-(2-fluoro-phenylamino)-thiophene-3-carbonitrile]
- IC50 [1]: < 10 µM
- IC50 (PDE4D): < 10 µM

SMILES: COc1ccc(Nc2sc(C(=O)c3cc(OC)ccc3OC)c(N)c2C#N)cc1 [Compound 1-93, 4-Amino-5-(2,5-dimethoxy-benzoyl)-2-(4-methoxy-phenylamino)-thiophene-3-carbonitrile]
- IC50 [1]: < 10 µM
- IC50 (PDE4D): < 10 µM

SMILES: COc1ccc(OC)c(C(=O)c2sc(Nc3ccc4c(c3)CCC4)c(C#N)c2N)c1 [Compound 1-94, 4-Amino-5-(2,5-dimethoxy-benzoyl)-2-(indan-5-ylamino)-thiophene-3-carbonitrile]
- IC50 [1]: < 10 µM
- IC50 (PDE4D): < 10 µM

SMILES: COC(=O)C(CCSC)Nc1sc(C(=O)c2cc(OC)ccc2OC)c(N)c1C#N (stereo not drawn) [Compound 1-95, 2-[4-Amino-3-cyano-5-(2,5-dimethoxy-benzoyl)-thiophen-2-ylamino]-4-methylsulfanyl-butyric acid methyl ester]
- IC50 [1]: < 10 µM
- IC50 (PDE4D): > 10 µM

SMILES: COc1ccc(OC)c(C(=O)c2sc(Nc3ccc(Oc4ccccc4)cc3)c(C#N)c2N)c1 [Compound 1-96, 4-Amino-5-(2,5-dimethoxy-benzoyl)-2-(4-phenoxy-phenylamino)-thiophene-3-carbonitrile]
- IC50 [1]: < 10 µM
- IC50 (PDE4D): > 10 µM

SMILES: COc1ccc(OC)c(C(=O)c2sc(Nc3ccc(C(=O)NC4CCOC4=O)cc3)c(C#N)c2N)c1 (stereo not drawn) [Compound 1-97, 4-[4-Amino-3-cyano-5-(2,5-dimethoxy-benzoyl)-thiophen-2-ylamino]-N-(2-oxo-tetrahydro-furan-3-yl)-benzamide]
- IC50 [1]: > 10 µM
- IC50 (PDE4D): < 10 µM

SMILES: COc1ccc(OC)c(C(=O)c2sc(NC3CCOC3=O)c(C#N)c2N)c1 (stereo not drawn) [Compound 1-98, 4-Amino-5-(2,5-dimethoxy-benzoyl)-2-(2-oxo-tetrahydro-furan-3-ylamino)-thiophene-3-carbonitrile]
- IC50 [1]: < 10 µM
- IC50 (PDE4D): > 10 µM

SMILES: COc1ccc(C(=O)c2sc(Nc3ccccc3F)c(C#N)c2N)c(OC)c1 [Compound 1-100, 4-Amino-5-(2,4-dimethoxy-benzoyl)-2-(2-fluoro-phenylamino)-thiophene-3-carbonitrile]
- IC50 [1]: < 10 µM
- IC50 (PDE4D): < 10 µM

SMILES: COc1ccc(Nc2sc(C(=O)c3ccc(OC)cc3OC)c(N)c2C#N)cc1 [Compound 1-101, 4-Amino-5-(2,4-dimethoxy-benzoyl)-2-(4-methoxy-phenylamino)-thiophene-3-carbonitrile]
- IC50 [1]: < 10 µM
- IC50 (PDE4D): < 10 µM

SMILES: COc1ccc(C(=O)c2sc(Nc3ccc4c(c3)CCC4)c(C#N)c2N)c(OC)c1 [Compound 1-102, 4-Amino-5-(2,4-dimethoxy-benzoyl)-2-(indan-5-ylamino)-thiophene-3-carbonitrile]
- IC50 [1]: < 10 µM
- IC50 (PDE4D): < 10 µM

SMILES: COc1ccc(C(=O)c2sc(Nc3ccc(C(=O)NC4CCOC4=O)cc3)c(C#N)c2N)c(OC)c1 (stereo not drawn) [Compound 1-103, 4-[4-Amino-3-cyano-5-(2,4-dimethoxy-benzoyl)-thiophen-2-ylamino]-N-(2-oxo-tetrahydro-furan-3-yl)-benzamide]
- IC50 [1]: > 10 µM
- IC50 (PDE4D): > 10 µM

SMILES: CCc1ccccc1Nc1sc(C(=O)c2ccc(OC)cc2OC)c(N)c1C#N [Compound 1-104, 4-Amino-5-(2,4-dimethoxy-benzoyl)-2-(2-ethyl-phenylamino)-thiophene-3-carbonitrile]
- IC50 [1]: < 10 µM
- IC50 (PDE4D): < 10 µM

SMILES: COc1ccc(Nc2sc(C(=O)c3coc4ccccc34)c(N)c2C#N)cc1 [Compound 1-105, 4-Amino-5-(benzofuran-3-carbonyl)-2-(4-methoxy-phenylamino)-thiophene-3-carbonitrile]
- IC50 [1]: < 10 µM
- IC50 (PDE4D): < 10 µM

SMILES: COC(=O)C(CC(C)C)Nc1sc(C(=O)c2coc3ccccc23)c(N)c1C#N (stereo not drawn) [Compound 1-106, 2-[4-Amino-5-(benzofuran-3-carbonyl)-3-cyano-thiophen-2-ylamino]-4-methyl-pentanoic acid methyl ester]
- IC50 [1]: < 10 µM
- IC50 (PDE4D): > 10 µM

SMILES: COC(=O)C(CCSC)Nc1sc(C(=O)c2coc3ccccc23)c(N)c1C#N (stereo not drawn) [Compound 1-107, 2-[4-Amino-5-(benzofuran-3-carbonyl)-3-cyano-thiophen-2-ylamino]-4-methylsulfanyl-butyric acid methyl ester]
- IC50 [1]: < 10 µM
- IC50 (PDE4D): < 10 µM

SMILES: N#Cc1c(Nc2ccc(C(=O)NC3CCOC3=O)cc2)sc(C(=O)c2coc3ccccc23)c1N (stereo not drawn) [Compound 1-108, 4-[4-Amino-5-(benzofuran-3-carbonyl)-3-cyano-thiophen-2-ylamino]-N-(2-oxo-tetrahydro-furan-3-yl)-benzamide]
- IC50 [1]: < 10 µM
- IC50 (PDE4D): < 10 µM

SMILES: CCc1ccccc1Nc1sc(C(=O)c2coc3ccccc23)c(N)c1C#N [Compound 1-109, 4-Amino-5-(benzofuran-3-carbonyl)-2-(2-ethyl-phenylamino)-thiophene-3-carbonitrile]
- IC50 [1]: < 10 µM
- IC50 (PDE4D): < 10 µM

SMILES: COC(=O)C(CC(C)C)Nc1sc(C(=O)c2ccccc2Cl)c(N)c1C#N (stereo not drawn) [Compound 1-111, 2-[4-Amino-5-(2-chloro-benzoyl)-3-cyano-thiophene-2-ylamino]-4-methyl-pentanoic acid methyl ester]
- IC50 [1]: < 10 µM
- IC50 (PDE4D): < 10 µM

SMILES: COC(=O)C(CCSC)Nc1sc(C(=O)c2ccccc2Cl)c(N)c1C#N (stereo not drawn) [Compound 1-112, 2-[4-Amino-5-(2-chloro-benzoyl)-3-cyano-thiophene-2-ylamino]-4-methylsulfanyl-butyric acid methyl ester]
- IC50 [1]: < 10 µM
- IC50 (PDE4D): < 10 µM

SMILES: COc1ccc(CNc2sc(C(=O)c3ccccc3Cl)c(N)c2C#N)cc1OC [Compound 1-113, 4-Amino-5-(2-chloro-benzoyl)-2-(3,4-dimethoxy-benzylamino)-thiophene-3-carbonitrile]
- IC50 [1]: < 10 µM
- IC50 (PDE4D): < 10 µM

SMILES: N#Cc1c(Nc2ccc(C(=O)NC3CCOC3=O)cc2)sc(C(=O)c2ccccc2Cl)c1N (stereo not drawn) [Compound 1-114, 4-[4-Amino-5-(2-chloro-benzoyl)-3-cyano-thiophen-2-ylamino]-N-(2-oxo-tetrahydro-furan-3-yl)-benzamide]
- IC50 [1]: < 10 µM
- IC50 (PDE4D): < 10 µM

SMILES: N#Cc1c(NC2CCCC2)sc(C(=O)c2ccccc2Cl)c1N [Compound 1-115, 4-Amino-5-(2-chloro-benzoyl)-2-cyclopentylamino-thiophene-3-carbonitrile]
- IC50 [1]: < 10 µM
- IC50 (PDE4D): < 10 µM
